Data: ChEMBL document CHEMBL3046389, “Synthesis and biological evaluation of novel hydroquinone dimethyl ethers as potential anticancer and antimicrobial agents” (2013)

How the values were obtained:
Assay type in all cases: functional
MOLT-4 = assay: Growth inhibition of Homo sapiens (human) MOLT4 cells at 10 uM after 48 hr by SRB assay; details: MOLT-4, 48 h, read-out: GI
OVCAR-4 = assay: Anticancer activity against Homo sapiens (human) OVCAR4 cells after 48 hr by SRB assay; details: OVCAR-4, 48 h
SNB-19 [1] = assay: Growth inhibition of Homo sapiens (human) SNB19 cells at 10 uM after 48 hr by SRB assay; details: SNB-19, 48 h, read-out: GI
HCT-116 = assay: Growth inhibition of Homo sapiens (human) HCT116 cells at 10 uM after 48 hr by SRB assay; details: HCT-116, 48 h, read-out: GI
NCI-H522 = assay: Anticancer activity against Homo sapiens (human) NCI-H522 cells after 48 hr by SRB assay; details: NCI-H522, 48 h
NCI-H460 [2] = assay: Anticancer activity against Homo sapiens (human) NCI-H460 cells after 48 hr by SRB assay; details: NCI-H460, 48 h
MDA-MB-435 = assay: Anticancer activity against Homo sapiens (human) MDA-MB-435 cells after 48 hr by SRB assay; details: MDA-MB-435, 48 h
RXF 393 [3] = assay: Growth inhibition of Homo sapiens (human) RXF393 cells at 10 uM after 48 hr by SRB assay; details: RXF 393, 48 h, read-out: GI
SK-MEL-5 = assay: Anticancer activity against Homo sapiens (human) SK-MEL-5 cells after 48 hr by SRB assay; details: SK-MEL-5, 48 h
SK-MEL-2 = assay: Anticancer activity against Homo sapiens (human) SK-MEL-2 cells after 48 hr by SRB assay; details: SK-MEL-2, 48 h
SW-620 = assay: Anticancer activity against Homo sapiens (human) SW620 cells after 48 hr by SRB assay; details: SW-620, 48 h
SF-539 = assay: Growth inhibition of Homo sapiens (human) SF539 cells at 10 uM after 48 hr by SRB assay; details: SF-539, 48 h, read-out: GI
Hs-578T = assay: Anticancer activity against Homo sapiens (human) Hs 578T cells after 48 hr by SRB assay
HL-60(TB) [4] = assay: Growth inhibition of Homo sapiens (human) HL-60(TB) cells at 10 uM after 48 hr by SRB assay; details: HL-60, 48 h, read-out: GI
T47D = assay: Anticancer activity against Homo sapiens (human) T47D cells after 48 hr by SRB assay
NCI-H460 [5] = assay: Growth inhibition of Homo sapiens (human) NCI-H460 cells at 10 uM after 48 hr by SRB assay; details: NCI-H460, 48 h, read-out: GI
SN12C = assay: Anticancer activity against Homo sapiens (human) SN12C cells after 48 hr by SRB assay
MDA-MB-468 = assay: Anticancer activity against Homo sapiens (human) MDA-MB-468 cells after 48 hr by SRB assay; details: MDA-MB-468, 48 h
PC-3 = assay: Anticancer activity against Homo sapiens (human) PC3 cells after 48 hr by SRB assay; details: PC-3, 48 h
SNB-19 [6] = assay: Anticancer activity against Homo sapiens (human) SNB19 cells after 48 hr by SRB assay; details: SNB-19, 48 h
786-0 = assay: Growth inhibition of Homo sapiens (human) 786-0 cells at 10 uM after 48 hr by SRB assay; details: 786-0, 48 h, read-out: GI
RXF 393 [7] = assay: Anticancer activity against Homo sapiens (human) RXF393 cells after 48 hr by SRB assay; details: RXF 393, 48 h
HL-60(TB) [8] = assay: Anticancer activity against Homo sapiens (human) HL-60(TB) cells after 48 hr by SRB assay; details: HL-60, 48 h
UACC-257 = assay: Anticancer activity against Homo sapiens (human) UACC257 cells after 48 hr by SRB assay; details: UACC-257, 48 h
UO-31 = assay: Anticancer activity against Homo sapiens (human) UO31 cells after 48 hr by SRB assay; details: UO-31, 48 h
CCRF-CEM [9] = assay: Growth inhibition of Homo sapiens (human) CCRF-CEM cells at 10 uM after 48 hr by SRB assay; details: read-out: GI
A549 = assay: Growth inhibition of Homo sapiens (human) A549/ATCC cells at 10 uM after 48 hr by SRB assay; details: A549, 48 h, read-out: GI
UACC-62 = assay: Anticancer activity against Homo sapiens (human) UACC62 cells after 48 hr by SRB assay; details: UACC-62, 48 h
MCF7 = assay: Anticancer activity against Homo sapiens (human) MCF7 cells after 48 hr by SRB assay; details: MCF7, 48 h
SNB-75 = assay: Anticancer activity against Homo sapiens (human) SNB75 cells after 48 hr by SRB assay; details: SNB-75, 48 h
RPMI-8226 = assay: Anticancer activity against Homo sapiens (human) RPMI8226 cells after 48 hr by SRB assay; details: RPMI-8226, 48 h
CCRF-CEM [10] = assay: Anticancer activity against Homo sapiens (human) CCRF-CEM cells after 48 hr by SRB assay
[11] = read-out: LC50 (the source's name)

COc1ccc(OC)c(/C=C/C(=O)N/N=C/c2ccc(Cl)cc2)c1
inhibition of growth at 10 µM (MOLT-4): 73.7% | GI50 (OVCAR-4): 0.439 µM | TGI (OVCAR-4): > 100 µM | CC50 (OVCAR-4; [11]): > 100 µM | inhibition of growth at 10 µM (SNB-19 [1]): 77.4% | inhibition of growth at 10 µM (HCT-116): 94.3% | GI50 (NCI-H522): 0.0292 µM | TGI (NCI-H522): 0.382 µM | CC50 (NCI-H522; [11]): > 100 µM | GI50 (NCI-H460 [2]): 0.119 µM | TGI (NCI-H460 [2]): 13.8 µM | CC50 (NCI-H460 [2]; [11]): > 100 µM | GI50 (MDA-MB-435): 0.0311 µM | TGI (MDA-MB-435): 0.0988 µM | CC50 (MDA-MB-435; [11]): > 100 µM | inhibition of growth at 10 µM (RXF 393 [3]): 120% | GI50 (SK-MEL-5): 0.0581 µM | LC50 (SK-MEL-5): > 100 µM | GI50 (SK-MEL-2): 24.7 µM | TGI (SK-MEL-2): > 100 µM | CC50 (SK-MEL-2; [11]): > 100 µM | GI50 (SW-620): 0.0813 µM | TGI (SW-620): > 100 µM | CC50 (SW-620; [11]): > 100 µM | inhibition of growth at 10 µM (SF-539): 143% | GI50 (Hs-578T): 0.284 µM | TGI (Hs-578T): > 100 µM | CC50 (Hs-578T; [11]): > 100 µM | inhibition of growth at 10 µM (HL-60(TB) [4]): 79.9% | GI50 (T47D): 0.16 µM | TGI (T47D): > 100 µM | CC50 (T47D; [11]): > 100 µM | inhibition of growth at 10 µM (NCI-H460 [5]): 94.8% | GI50 (SN12C): 0.982 µM | LC50 (SN12C): > 100 µM | TGI (SN12C): > 100 µM | GI50 (MDA-MB-468): 0.142 µM | TGI (MDA-MB-468): 0.445 µM | CC50 (MDA-MB-468; [11]): > 100 µM | GI50 (PC-3): 0.169 µM | TGI (PC-3): > 100 µM | CC50 (PC-3; [11]): > 100 µM | GI50 (SNB-19 [6]): 0.34 µM | TGI (SNB-19 [6]): > 100 µM | CC50 (SNB-19 [6]; [11]): > 100 µM | inhibition of growth at 10 µM (786-0): 83.3% | GI50 (RXF 393 [7]): 0.0469 µM | LC50 (RXF 393 [7]): > 100 µM | TGI (RXF 393 [7]): 0.298 µM | GI50 (HL-60(TB) [8]): 0.0785 µM | TGI (HL-60(TB) [8]): 0.483 µM | CC50 (HL-60(TB) [8]; [11]): > 100 µM | GI50 (UACC-257): 36.5 µM | LC50 (50% lethal concentration) (UACC-257): > 100 µM | TGI (UACC-257): > 100 µM | GI50 (UO-31): 3.37 µM | LC50 (50% lethal concentration) (UO-31): > 100 µM | TGI (UO-31): > 100 µM | inhibition of growth at 10 µM (CCRF-CEM [9]): 86.3% | inhibition of growth at 10 µM (A549): 72.2% | GI50 (UACC-62): 0.068 µM | LC50 (UACC-62): > 100 µM | TGI (UACC-62): > 100 µM | GI50 (MCF7): 0.0743 µM | TGI (MCF7): 32.5 µM | CC50 (MCF7; [11]): > 100 µM | GI50 (SNB-75): 0.098 µM | TGI (SNB-75): 1.17 µM | CC50 (SNB-75; [11]): > 100 µM | GI50 (RPMI-8226): 0.3 µM | TGI (RPMI-8226): 15.7 µM | CC50 (RPMI-8226; [11]): > 100 µM | GI50 (CCRF-CEM [10]): 0.228 µM | TGI (CCRF-CEM [10]): > 100 µM | CC50 (CCRF-CEM [10]; [11]): > 100 µM
